Reference: patent US5698578A, “Protein kinase C inhibitors” (Eli Lilly and Company, priority 1996, dated 1997)
Entries after “also recorded” stand apart in the source; their conditions may differ. Blank lines part the entries; values can stand above or below the compound they belong to.

Experiments:
[1] = from CN1C(=O)C(c2c[nH]c3ccccc23)=C(c2cn(CCOC(CCI)CO[Si](c3ccccc3)(c3ccccc3)C(C)(C)C)c3ccccc23)C1=O; amine bond; Cs2CO3; DMF; 8.98 mM; 68.0 h
[2] = test system: protein kinase C isozymes; conditions: literature; cited from earlier work
[3] = biological target: Protein Tyrosine Kinase (src) (Homo sapiens, UniProt P12931); experiment: Protein Tyrosine Kinase Assay (src); type: biochemical; conditions: Table 1; Raytide substrate
Sequence of Protein Tyrosine Kinase (src) (P12931 whole entry, species assumed): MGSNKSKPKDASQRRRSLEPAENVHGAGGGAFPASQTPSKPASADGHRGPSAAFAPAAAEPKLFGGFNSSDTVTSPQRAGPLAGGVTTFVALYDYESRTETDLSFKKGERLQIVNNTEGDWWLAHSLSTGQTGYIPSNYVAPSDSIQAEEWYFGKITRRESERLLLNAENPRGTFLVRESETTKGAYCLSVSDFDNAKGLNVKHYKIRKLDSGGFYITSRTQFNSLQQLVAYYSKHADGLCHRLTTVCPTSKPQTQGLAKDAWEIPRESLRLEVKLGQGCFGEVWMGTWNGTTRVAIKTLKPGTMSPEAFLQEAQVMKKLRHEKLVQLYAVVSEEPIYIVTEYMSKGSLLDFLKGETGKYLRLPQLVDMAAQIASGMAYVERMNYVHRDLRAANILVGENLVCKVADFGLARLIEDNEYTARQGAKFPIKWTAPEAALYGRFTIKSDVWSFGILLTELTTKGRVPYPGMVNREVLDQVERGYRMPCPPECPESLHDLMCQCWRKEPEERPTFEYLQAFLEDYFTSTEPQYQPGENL
Procedure: Protein Tyrosine Kinase Assay (src)
The Assay components are the following:
4 μL DMSO or DMSO/inhibitor

PKC-α = PKC-α (Homo sapiens, UniProt P17252); experiment: PKC Enzyme Assay, alpha isozyme; type: biochemical; conditions: Table 1, 30 μM ATP, 30° C., 10 minutes
Procedure: PKC enzymes=alpha, beta I, beta II, gamma, delta, epsilon, eta and zeta.
Assay components in a total volume of 250 μL are as follows:
For all the enzymes either histone type HL (Worthington) or myelin basic protein is used as substrate. The assay is started by addition of protein kinase C enzyme incubated at 30° C. for 10 minutes and stopped by adding 0.5 mL of cold trichloroacetic acid (Amresco) followed by 100 μL of 1 mg/mL bovine serum albumin (Sigma, St. Louis, Mo.). The precipitate is collected by vacuum filtration on glass fiber filters employing a TOMTEC™ filtration system and quantified by counting in a beta scintillation counter.

SMILES: CN1C(=O)C2=C(C1=O)c1cn(c3ccccc13)CCC(CO[Si](c1ccccc1)(c1ccccc1)C(C)(C)C)OCCn1cc2c2ccccc21 (stereo not shown)
ring closure, yield of all isomers [1]: 82%

SMILES: CN(C)CCCn1cc(C2=C(c3c[nH]c4ccccc34)C(=O)NC2=O)c2ccccc21 [3-[1-(3-dimethylaminopropyl)-indol-3-yl]-4-(1H-indol-3-yl)-1H-pyrrole-2,5-dione]
PKC isozyme selectivity [2]: slight selectivity for the calcium dependent isozymes; also recorded: no difference, or possibly slight selectivity, for alpha over beta-1 and beta-2 isozymes

IC50 [3]: > 100 µM
SMILES: O=C1NC(=O)C2=C1c1cn(c3ccccc13)CCO[C@H](CNCc1ccccc1)CCn1cc2c2ccccc21 [Example 18s]

IC50 (PKC-α): > 5 µM
SMILES: O=C1NC(=O)C2=C1c1cn(c3ccccc13)CCO[C@H](CNS(=O)(=O)c1ccccc1)CCn1cc2c2ccccc21 [Example 21s]
